The values below come from ChEMBL document CHEMBL1201862, “PubChem BioAssay data set” (2004).

The term AC50 denotes the concentration giving half of the maximal activity seen. For orientation: CC50 means the concentration that lowers cell viability or growth by half. As a reminder, the IC50 is the concentration needed to halve the response being measured. For orientation: EC50 means the concentration that produces a half-maximal response.

One test addresses Paired box protein Pax-8 (Homo sapiens, UniProt Q06710). Kind of test: inhibitors of PAX8-driven TPO luciferase reporter, dose response, RMG-I cells, cherry-pick (AID 687027).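 Also: luciferase reporter driven by Pax8 target thyroperoxidase promoter measured by SteadyGlo luminescence.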 In kind it is functional, cell-based. For orientation: Reporter assays use an easily measured gene product as a stand-in for the process of interest.
A short description of test [1]: HEp-2 cell cytotoxicity, dose response, cytotoxicity control for RSV inhibitor project, HTS (AID 2410). The format is functional. The following applies: human respiratory syncytial virus.
The target in test [2] is T1, Rac GTPase-activating protein 1 (Homo sapiens, UniProt Q9H0H5).
T1 sequence (Q9H0H5 whole entry): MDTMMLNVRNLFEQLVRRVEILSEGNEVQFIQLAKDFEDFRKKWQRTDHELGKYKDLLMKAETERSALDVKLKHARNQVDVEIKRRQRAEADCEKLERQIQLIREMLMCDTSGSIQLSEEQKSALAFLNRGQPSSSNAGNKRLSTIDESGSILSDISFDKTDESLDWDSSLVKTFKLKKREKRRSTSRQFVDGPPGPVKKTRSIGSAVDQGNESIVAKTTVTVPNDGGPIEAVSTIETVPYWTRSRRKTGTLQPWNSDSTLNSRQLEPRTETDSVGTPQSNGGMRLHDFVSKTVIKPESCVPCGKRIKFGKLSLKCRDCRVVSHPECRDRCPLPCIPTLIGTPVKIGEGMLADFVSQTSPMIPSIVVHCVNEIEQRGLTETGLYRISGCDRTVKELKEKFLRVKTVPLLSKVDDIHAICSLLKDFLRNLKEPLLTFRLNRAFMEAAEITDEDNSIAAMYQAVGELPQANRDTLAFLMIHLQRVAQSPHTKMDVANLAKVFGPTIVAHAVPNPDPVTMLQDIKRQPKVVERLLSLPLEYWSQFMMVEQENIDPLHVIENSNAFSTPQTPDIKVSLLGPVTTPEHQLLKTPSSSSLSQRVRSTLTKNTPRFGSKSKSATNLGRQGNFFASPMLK
Kind of test: MgcRacGAP GTPase-activating activity inhibitors, confirmation, biochemical, ADP Hunter fluorescence, primary and confirmatory (AID 624330). The format is functional.

Another test has as its system H9c2. The test is described as follows: cells. In kind it is functional, cell-based. Particulars: Rattus norvegicus, H9c2, Myocardium.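 Also: confirmatory concentration-response retest of ultra-high-throughput screening hits for modulation of myocardial damage; cell death induced by hydrogen peroxide oxidative stress; compound pretreatment for 60 min then peroxide exposure for 2 h; potency is for protecting the cells against peroxide damage rather than for killing them.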
Test [3] is described as follows: Luminescence Cell-Based Dose Confirmation HTS to Identify Inhibitors of Platelet Dense Granule Release. [Related pubchem assays: 1663 (Primary HTS), 1678 (Summary of Project)]. The format is functional.
The target of test [4] is Luciferin 4-monooxygenase (Photinus pyralis, UniProt P08659). The test is described as follows: firefly luciferase enzyme inhibitors, dose response, biochemical, luminescence (AID 1891).
In a further test the target is Cytochrome P450 2C9 (Homo sapiens, UniProt P11712).

Active and inactive are the calls of the source.

Sequence of Paired box protein Pax-8 (Q06710 whole entry): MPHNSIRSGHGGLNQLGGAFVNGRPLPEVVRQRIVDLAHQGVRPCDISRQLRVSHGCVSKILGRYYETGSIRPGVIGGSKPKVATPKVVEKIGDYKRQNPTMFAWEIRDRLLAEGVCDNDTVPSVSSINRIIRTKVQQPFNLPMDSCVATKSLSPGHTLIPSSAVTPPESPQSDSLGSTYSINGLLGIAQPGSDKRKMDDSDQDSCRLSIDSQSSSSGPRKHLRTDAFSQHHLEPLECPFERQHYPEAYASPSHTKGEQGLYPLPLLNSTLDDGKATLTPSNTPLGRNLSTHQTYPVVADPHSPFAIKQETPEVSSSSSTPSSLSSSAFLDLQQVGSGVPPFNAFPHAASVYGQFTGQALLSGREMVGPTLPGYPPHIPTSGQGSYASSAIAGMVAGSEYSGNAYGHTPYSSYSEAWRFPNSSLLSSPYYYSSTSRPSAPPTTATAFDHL
Sequence of Luciferin 4-monooxygenase (P08659 whole entry): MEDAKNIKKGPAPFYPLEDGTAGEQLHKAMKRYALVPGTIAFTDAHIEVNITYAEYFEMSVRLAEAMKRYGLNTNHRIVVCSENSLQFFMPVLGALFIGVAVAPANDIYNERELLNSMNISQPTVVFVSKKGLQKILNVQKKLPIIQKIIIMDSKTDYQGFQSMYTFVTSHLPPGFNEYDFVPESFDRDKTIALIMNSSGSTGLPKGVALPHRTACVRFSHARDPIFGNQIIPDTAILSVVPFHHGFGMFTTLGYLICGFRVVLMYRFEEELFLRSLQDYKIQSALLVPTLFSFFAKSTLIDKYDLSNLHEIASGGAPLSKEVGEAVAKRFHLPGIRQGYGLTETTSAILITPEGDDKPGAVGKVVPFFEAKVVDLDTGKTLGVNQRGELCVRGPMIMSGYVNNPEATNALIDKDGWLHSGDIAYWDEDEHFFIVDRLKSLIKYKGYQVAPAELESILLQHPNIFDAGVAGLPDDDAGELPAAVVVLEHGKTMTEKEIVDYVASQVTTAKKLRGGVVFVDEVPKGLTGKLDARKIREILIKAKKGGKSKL
Sequence of Cytochrome P450 2C9 (P11712 whole entry): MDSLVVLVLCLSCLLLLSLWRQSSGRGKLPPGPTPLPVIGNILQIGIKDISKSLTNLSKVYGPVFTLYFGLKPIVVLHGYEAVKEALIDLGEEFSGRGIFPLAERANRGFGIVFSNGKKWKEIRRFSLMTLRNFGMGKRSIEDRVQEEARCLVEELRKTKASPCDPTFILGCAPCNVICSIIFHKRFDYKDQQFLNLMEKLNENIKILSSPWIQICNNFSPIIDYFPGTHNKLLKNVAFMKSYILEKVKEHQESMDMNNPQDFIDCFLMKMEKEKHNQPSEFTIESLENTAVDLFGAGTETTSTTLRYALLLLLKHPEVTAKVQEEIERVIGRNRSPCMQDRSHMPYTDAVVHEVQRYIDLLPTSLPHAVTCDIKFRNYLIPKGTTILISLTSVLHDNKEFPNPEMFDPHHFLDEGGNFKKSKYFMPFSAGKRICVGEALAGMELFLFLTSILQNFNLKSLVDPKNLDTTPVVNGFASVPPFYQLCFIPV

Regarding `C[C@@H]1CN([C@@H](C)CO)S(=O)(=O)c2ccc(C#Cc3ccccc3F)cc2O[C@H]1CN(C)CC1CCOCC1`, the AC50 at Paired box protein Pax-8 is 10.3 µM (active).

In the case of `Cc1ccc(Cn2nnc3c(O)nc(C4CCN(S(=O)(=O)c5ccccc5F)CC4)nc32)cc1`, the 50% cytotoxic concentration (CC50) in test [1] is 22.2 µM (active).

In the case of `COc1ccc(CNC(=O)c2cc(-c3cc(C)cc(C)c3O)[nH]n2)cc1`, the cytotoxic concentration (CC50) in test [1] was > 50 µM (active).

In the case of `CCOc1cc(-c2cc(-c3ccc(N)cc3)nc(N)c2C#N)ccc1O`, the results for the IC50 (in test [2]; with H9c2) were 131 µM (active) and > 79 µM (inactive), respectively.

For `O=C1CCC(c2ccc(-n3ccnc3)cc2)=NN1` [IMAZODAN], the values for the EC50 in test [3] and in test [4] were 1.36 µM (active) and > 112 µM (not active), respectively. Besides, on Cytochrome P450 2C9, the AC50 is 31.6 µM (inconclusive).

With `O=C(CSCc1c(Cl)cccc1Cl)NCc1ccco1`, the EC50 in test [3] and in test [4] was > 112 µM (not active) throughout.

For `COc1ccccc1NC(=O)C(C)NS(=O)(=O)c1ccccc1` (stereo not drawn), the EC50 in test [3] and in test [4] was > 112 µM (not active) in each case.

Take `Cn1c(=O)c2c(SCc3c(F)cccc3Cl)nc(CC(C)(C)C)nc2n(C)c1=O`: in test [1], the CC50 is 30.1 µM (active).

Regarding `C[C@@H]1CCCCO[C@H](CN(C)S(=O)(=O)c2ccc(Cl)cc2)[C@@H](C)CN([C@@H](C)CO)C(=O)c2cc(NC(=O)CCC(F)(F)F)ccc2O1`, on Paired box protein Pax-8, the concentration at half-maximal activity (AC50) was 3.2 µM (active).

Consider `Cc1ncoc1C(=O)Nc1ccc2c(c1)OCCO2`, for which the EC50 is 5.11 µM (active) in test [3] and 34.3 µM (active) in test [4].

As for `CCOC(=O)NC1(C(F)(F)F)NC(=O)N(Cc2ccco2)C1=O` (stereo not drawn), the EC50 in test [3] and in test [4] was > 112 µM (not active) in each case.

Turning to `COc1cccc(OC)c1C(=O)N1CCN(Cc2ccc3c(c2)OCO3)CC1`, in test [2], the IC50 is 248 µM (active).

Consider `O=C(Cc1nnc(O)c2ccccc12)NCc1ccc(Cl)cc1`, for which the IC50 with H9c2 is > 79 µM (inactive). For the same compound, the 50% effective concentration (EC50) in test [3] and in test [4] was > 112 µM (not active) each time.

As to `C[C@H](CO)N1C[C@H](C)[C@H](CN(C)C(=O)NC2CCCCC2)OCCCC[C@H](C)Oc2ccc(NC(=O)Nc3ccc(C(F)(F)F)cc3)cc2C1=O`, on Paired box protein Pax-8, the AC50 is 6.15 µM (active).

`Cc1cc(C)n(C(=O)c2ccc(S(=O)(=O)N3CCCC3)cc2)n1`: the EC50 in test [3] and in test [4] was > 112 µM (not active) throughout.

With `COc1ccc(-c2nc(C[S+]([O-])CC(=O)NC3CCCC(C)C3C)c(C)o2)cc1OC` (stereo not drawn), the EC50 in test [3] and in test [4] was > 112 µM (not active) each time.

With `Nc1nnnn1/N=C/c1cccc(Br)c1`, the cytotoxic concentration (CC50) in test [1] is > 50 µM (active).

In the case of `CN(c1ccccc1)S(=O)(=O)c1cccc(NC(=O)c2cncc(Br)c2)c1`, the CC50 in test [1] was 12.4 µM (active).

Consider `COc1ccc(NC(=O)CN2C(=O)C(c3ccccc3)=NC23CCCCCC3)cc1`, for which the half-maximal effective concentration (EC50) in test [3] and in test [4] was > 112 µM (not active) each time.

As to `O=C1NC(=S)S/C1=C1\Sc2ccccc2N1CCCS(=O)(=O)O`, the half-maximal inhibitory concentration (IC50) in test [2] is 123 µM (active).

As to `COc1cccc(CN2CCN(Cc3cccc(Oc4ccccc4)c3)CC2)c1OC`, the IC50 in test [2] was 93.1 µM (active).
